Series [1] has as its target T1, Procathepsin L (Homo sapiens, UniProt P07711). The series is described as follows: Inhibition of human cathepsin-L using Z-Phe-Arg-AMC as substrate by fluorometric assay.
Target sequence in this assay (P07711 whole entry): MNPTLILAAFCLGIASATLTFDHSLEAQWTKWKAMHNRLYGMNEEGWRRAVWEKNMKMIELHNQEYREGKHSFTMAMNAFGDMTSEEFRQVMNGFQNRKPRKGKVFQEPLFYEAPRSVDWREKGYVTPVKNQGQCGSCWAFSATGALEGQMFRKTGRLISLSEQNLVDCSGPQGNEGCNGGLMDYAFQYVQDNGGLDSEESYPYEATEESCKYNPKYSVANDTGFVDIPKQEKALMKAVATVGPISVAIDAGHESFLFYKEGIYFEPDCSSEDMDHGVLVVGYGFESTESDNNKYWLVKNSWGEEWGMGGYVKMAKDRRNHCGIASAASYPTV
Series [2] concerns the target T2, Cathepsin B (Homo sapiens, UniProt P07858). The series is described as follows: Inhibition of human cathepsin-B using Z-Phe-Arg-AMC as substrate by fluorometric assay.
The next series deals with T3, Falcipain 2 (Plasmodium falciparum, UniProt Q9N6S8).
T3 sequence (Q9N6S8 whole entry): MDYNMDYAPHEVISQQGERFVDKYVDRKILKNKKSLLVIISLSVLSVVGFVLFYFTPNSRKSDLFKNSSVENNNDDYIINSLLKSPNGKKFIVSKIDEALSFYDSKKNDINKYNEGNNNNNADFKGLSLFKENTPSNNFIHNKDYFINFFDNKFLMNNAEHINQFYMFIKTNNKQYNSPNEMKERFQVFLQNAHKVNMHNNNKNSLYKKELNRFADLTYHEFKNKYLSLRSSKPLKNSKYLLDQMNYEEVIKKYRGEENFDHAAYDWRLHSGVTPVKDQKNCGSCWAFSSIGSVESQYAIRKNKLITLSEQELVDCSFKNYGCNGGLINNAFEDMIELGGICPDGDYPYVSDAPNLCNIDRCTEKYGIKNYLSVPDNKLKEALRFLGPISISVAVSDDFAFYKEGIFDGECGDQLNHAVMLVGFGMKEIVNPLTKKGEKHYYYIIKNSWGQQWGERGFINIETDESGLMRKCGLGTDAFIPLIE
The series is described as follows: Inhibition of Plasmodium falciparum falcipain 2 using Z-Phe-Arg-AMC as substrate by fluorometric assay.

Series [3] concerns Leishmania major. The series is described as follows: Antileishmanial activity against Leishmania major promastigotes at 20 uM. Format: functional, organism-based.
Series [4] has as its system Leishmania major. In words: Antileishmanial activity against Leishmania major promastigotes. Type of series: functional, organism-based.
Series [5] concerns Leishmania major. In words: Antileishmanial activity against luciferase-fused Leishmania major amastigotes infected in BMDM after 24 hrs by luminescence assay. Type of series: functional, organism-based.
The subject of a further series is J774. In words: Cytotoxicity against mouse J774 cells. Type of series: cell-based.
Series [6] has as its target T4, Cathepsin B-like protease (Leishmania major, UniProt P90627).
T4 sequence (P90627 whole entry): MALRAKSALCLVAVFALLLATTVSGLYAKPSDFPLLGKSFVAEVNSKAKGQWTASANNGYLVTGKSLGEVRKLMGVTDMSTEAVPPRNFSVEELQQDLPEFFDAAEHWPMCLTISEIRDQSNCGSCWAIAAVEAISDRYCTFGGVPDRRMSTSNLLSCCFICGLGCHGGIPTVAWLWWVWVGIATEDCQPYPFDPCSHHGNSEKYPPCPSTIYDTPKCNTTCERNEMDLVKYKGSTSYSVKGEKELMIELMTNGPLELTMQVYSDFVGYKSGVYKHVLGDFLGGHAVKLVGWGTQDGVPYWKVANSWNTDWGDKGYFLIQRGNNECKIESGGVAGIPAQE
The series is described as follows: Inhibition of Leishmania major MHOM/IL/81/FE/BNI His6-tagged CPC expressed in Pichia pastoris using Cbz-Phe-Arg-AMC as substrate by fluorescence spectrometric method. As to conditions: read-out: Ki(app).

Series [7] is described as follows: Inhibition of Leishmania mexicana cathepsin L-like protease CPB2.8 using Z-Phe-Arg-AMC as substrate by fluorometric assay.
For a further series, the target named is Rhodesain (Trypanosoma brucei rhodesiense, UniProt Q95PM0). In words: Inhibition of Trypanosoma brucei rhodesiense rhodesain using Z-Phe-Arg-AMC as substrate by fluorometric assay.
Rhodesain, sequence (Q95PM0 whole entry): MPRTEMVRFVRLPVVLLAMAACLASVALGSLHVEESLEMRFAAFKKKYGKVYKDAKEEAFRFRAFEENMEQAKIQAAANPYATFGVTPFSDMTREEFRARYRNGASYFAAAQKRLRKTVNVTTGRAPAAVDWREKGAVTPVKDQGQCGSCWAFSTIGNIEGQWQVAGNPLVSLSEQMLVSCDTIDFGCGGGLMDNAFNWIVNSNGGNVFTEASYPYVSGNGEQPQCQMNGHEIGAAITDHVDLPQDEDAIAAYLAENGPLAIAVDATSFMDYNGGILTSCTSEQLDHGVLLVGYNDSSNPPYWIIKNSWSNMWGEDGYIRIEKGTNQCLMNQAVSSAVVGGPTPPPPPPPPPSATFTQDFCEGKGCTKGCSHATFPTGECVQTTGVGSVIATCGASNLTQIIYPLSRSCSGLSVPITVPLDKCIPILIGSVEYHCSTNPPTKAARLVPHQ
Series [8] has as its target T1, Procathepsin L. The series is described as follows: Inhibition of human cathepsin-L at 20 uM using Z-Phe-Arg-AMC as substrate by fluorometric assay relative to control.
Target sequence in this assay (P07711 114-333 limits assumed): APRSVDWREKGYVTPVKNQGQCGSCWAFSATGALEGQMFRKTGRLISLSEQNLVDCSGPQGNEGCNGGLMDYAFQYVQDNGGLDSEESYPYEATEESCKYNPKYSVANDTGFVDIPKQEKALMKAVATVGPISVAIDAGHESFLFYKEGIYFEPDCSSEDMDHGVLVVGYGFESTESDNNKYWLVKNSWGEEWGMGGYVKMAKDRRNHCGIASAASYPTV
Series [9] deals with T2, Cathepsin B. In words: Inhibition of human cathepsin-B at 20 uM using Z-Phe-Arg-AMC as substrate by fluorometric assay relative to control.
In series [10] the target is Cruzipain (Trypanosoma cruzi) (UniProt P25779). In words: Inhibition of Trypanosoma cruzi cruzain at 20 uM using Z-Phe-Arg-AMC as substrate by fluorometric assay relative to control.
Cruzipain (Trypanosoma cruzi), sequence (P25779 123-467 limits assumed): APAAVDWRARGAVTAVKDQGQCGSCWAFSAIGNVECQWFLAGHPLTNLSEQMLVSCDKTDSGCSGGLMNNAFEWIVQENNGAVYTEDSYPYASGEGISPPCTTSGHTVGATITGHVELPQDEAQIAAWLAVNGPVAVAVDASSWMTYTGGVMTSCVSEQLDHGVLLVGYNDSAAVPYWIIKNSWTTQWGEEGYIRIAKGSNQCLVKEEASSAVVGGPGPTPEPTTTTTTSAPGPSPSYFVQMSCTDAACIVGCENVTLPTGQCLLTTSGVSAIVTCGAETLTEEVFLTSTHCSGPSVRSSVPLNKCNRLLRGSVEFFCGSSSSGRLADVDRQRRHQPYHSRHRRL
Series [11] concerns the target T5, Falcipain 2 (Plasmodium falciparum) (UniProt Q9N6S8).
T5 sequence (whole entry): T3 sequence (Q9N6S8 whole entry)
In words: Inhibition of Plasmodium falciparum falcipain 2 at 20 uM using Z-Phe-Arg-AMC as substrate by fluorometric assay relative to control.

For series [12], the system named is Leishmania mexicana. In words: Inhibition of Leishmania mexicana cathepsin L-like protease CPB2.8 assessed as second order inactivation rate constant using Z-Phe-Arg-AMC as substrate by fluorometric assay.
The subject of series [13] is Leishmania mexicana. In words: Inhibition of Leishmania mexicana cathepsin L-like protease CPB2.8 at 20 uM using Z-Phe-Arg-AMC as substrate by fluorometric assay relative to control.
The target in series [14] is Rhodesain (Trypanosoma brucei rhodesiense) (UniProt Q95PM0). The series is described as follows: Inhibition of Trypanosoma brucei rhodesiense rhodesain at 20 uM using Z-Phe-Arg-AMC as substrate by fluorometric assay relative to control.
Rhodesain (Trypanosoma brucei rhodesiense), sequence (Q95PM0 1-450): as the sequence (Q95PM0 whole entry) above
Series [15] has the same target. In words: Inhibition of Trypanosoma brucei rhodesiense rhodesain assessed as second order inactivation rate constant using Z-Phe-Arg-AMC as substrate by fluorometric assay.
Series [16] concerns the target T5, Falcipain 2 (Plasmodium falciparum). The series is described as follows: Inhibition of Plasmodium falciparum falcipain 2 assessed as second order inactivation rate constant using Z-Phe-Arg-AMC as substrate by fluorometric assay.
In a further series the target is Cruzipain (Trypanosoma cruzi, UniProt P25779). The series is described as follows: Inhibition of Trypanosoma cruzi cruzain using Z-Phe-Arg-AMC as substrate by fluorometric assay.
Cruzipain, sequence (P25779 whole entry): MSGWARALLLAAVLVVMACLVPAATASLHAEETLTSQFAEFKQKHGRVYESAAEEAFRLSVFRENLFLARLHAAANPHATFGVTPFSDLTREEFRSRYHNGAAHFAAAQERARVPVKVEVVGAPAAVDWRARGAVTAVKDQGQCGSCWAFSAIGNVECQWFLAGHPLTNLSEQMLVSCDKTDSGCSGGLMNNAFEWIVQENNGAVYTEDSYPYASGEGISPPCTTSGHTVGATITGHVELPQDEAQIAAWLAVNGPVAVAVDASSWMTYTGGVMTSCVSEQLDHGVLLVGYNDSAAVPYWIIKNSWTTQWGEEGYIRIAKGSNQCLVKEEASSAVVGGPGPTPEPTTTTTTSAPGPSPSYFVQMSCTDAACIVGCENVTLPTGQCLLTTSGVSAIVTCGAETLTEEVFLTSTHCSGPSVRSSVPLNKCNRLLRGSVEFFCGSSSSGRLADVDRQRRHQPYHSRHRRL
The target of series [17] is Cruzipain (Trypanosoma cruzi) (UniProt P25779). In words: Inhibition of Trypanosoma cruzi cruzain assessed as second order inactivation rate constant using Z-Phe-Arg-AMC as substrate by fluorometric assay.
Series [18] addresses T1, Procathepsin L. The series is described as follows: Inhibition of human cathepsin-L assessed as second order inactivation rate constant using Z-Phe-Arg-AMC as substrate by fluorometric assay.
Target sequence in this assay (P07711 114-333 limits assumed): as the sequence (P07711 114-333 limits assumed) above

Consider seven compounds from ChEMBL document CHEMBL4270566, “New aziridine-based inhibitors of cathepsin L-like cysteine proteases with selectivity for the Leishmania cysteine protease LmCPB2.8” (Eur J Med Chem, 2018).

SMILES strings stand for the structures. The source made the active and inactive calls. The calls are words filed in the database; no cut-off is given here.

One may read the EC50 as the midpoint of the concentration-response curve. A high value points to weaker potency. Usually inhibition stands for how much of the control response was suppressed.

With `CC(C)C[C@H](NC(=O)OC(C)(C)C)C(=O)N1CCC[C@H]1C(=O)N1[C@@H](C(=O)OCc2ccccc2)[C@@H]1C(=O)OCc1ccccc1`, the Ki at Procathepsin L [1] was determined as 0.4 µM; on Cathepsin B [2], 114 µM; at Falcipain 2, 0.4 µM. Further, in the series on Leishmania major [3], the outcome was inactive.
With `CC(C)C[C@H](NC(=O)OC(C)(C)C)C(=O)N1CCC[C@@H]1C(=O)N1[C@@H](C(=O)OCc2ccccc2)[C@@H]1C(=O)OCc1ccccc1`, the results for the EC50 in the series with Leishmania major [4] and with Leishmania major [5] were 37.4 µM and 2.3 µM, respectively. The Activity in the series with J774 was above 250 µM. Also, the Ki was determined as 18.2 µM in [6], 3.8 µM in series [7] and 1.7 µM at Rhodesain. For the same compound, the inhibition entry (on Procathepsin L [8]; at Cathepsin B [9]; in series [10]; in series [11]) was “inactive” throughout.
For `CC[C@H](C)[C@H](NC(=O)OC(C)(C)C)C(=O)N1CCC[C@@H]1C(=O)N1[C@@H](C(=O)OCc2ccccc2)[C@@H]1C(=O)OCc1ccccc1`, the results for the EC50 in the series with Leishmania major [4] and with Leishmania major [5] were 9.8 µM and 2 µM, respectively. The compound also gave an Activity in the series on J774 above 250 µM.
For `CC(C)[C@H](NC(=O)OC(C)(C)C)C(=O)N1CCC[C@@H]1C(=O)N1[C@@H](C(=O)OCc2ccccc2)[C@@H]1C(=O)OCc1ccccc1`, in that order: 34.8 µM, 2.2 µM and above 250 µM.
Take `CC(C)C[C@H](NC(=O)OC(C)(C)C)C(=O)N1CCC[C@@H]1C(=O)N1C(C(=O)O)C1C(=O)OCCc1ccccc1` (mixture of isomers): the K with Leishmania mexicana [12] is 3180 M⁻¹ s⁻¹; in series [15], 2970 M⁻¹ s⁻¹; in series [16], 185 M⁻¹ s⁻¹. The Ki was found to be 0.44 µM in series [7], 0.16 µM at Rhodesain and 1.26 µM at Falcipain 2. The inhibition was below 50% against Procathepsin L [8]; above 50% with Leishmania mexicana [13]; above 50% in [14]; below 50% in series [10]; above 50% in [11]. Further, the inhibition entry at Cathepsin B [9] was “inactive”.
For `CC(C)C[C@H](NC(=O)OC(C)(C)C)C(=O)N1CCC[C@@H]1C(=O)N1C(C(=O)O)C1C(=O)OCCCc1ccccc1` (mixture of isomers), the Ki on Falcipain 2 came out at 28.6 µM. In addition, the inhibition against Procathepsin L [8] is below 50%; with Leishmania mexicana [13], below 50%; in series [14], below 50%; in [10] it was below 50%; in [11], above 50%. Further, the inhibition result at Cathepsin B [9] is “inactive”. The K in series [16] came out at 55.8 M⁻¹ s⁻¹.
Consider `CC(C)C[C@H](NC(=O)OC(C)(C)C)C(=O)N1CCC[C@@H]1C(=O)N1C(C(=O)O)C1C(=O)OCC1CCCCC1` (mixture of isomers), for which the K is 893 M⁻¹ s⁻¹ with Leishmania mexicana [12]; 5380 M⁻¹ s⁻¹ in [17]; 8230 M⁻¹ s⁻¹ in series [15]; 1280 M⁻¹ s⁻¹ in series [16]; 232 M⁻¹ s⁻¹ on Procathepsin L [18]. The Ki turned out to be 7.3 µM at Procathepsin L [1]; 1.79 µM in series [7]; 0.12 µM at Rhodesain; 0.71 µM on Cruzipain; 0.45 µM at Falcipain 2. Further, the inhibition (against Procathepsin L [8]; in the series with Leishmania mexicana [13]; in series [14]; in series [10]; in series [11]) was above 50% in each case. The inhibition entry on Cathepsin B [9] is “inactive”.
